Experimental data reported in patent publication EP0353754A2, “Radioactively marked benzodiazepin derivates” (F. HOFFMANN-LA ROCHE AG, priority 1988, dated 1990).

Assay: Organ distribution of injected radioactivity in rats after I.V. injection
Type: in vivo, Ratten (weiblich, Wistar, spf)
Details: Ratte
Procedure: Es werden je 3 Ratten (weiblich, Wistar, spf) zu sieben verschiedenen Zeitpunkten (2′, 10′, 20′, 40′, 1h, 6h, 15h) gemessen. Das Gewicht der Tiere lag zwischen 113 und 144 g. Die Fütterung erfolgte ad libitum. Die I.V. injizierten Dosen variierten von 184 bis 355 µCi in jeweils 0,2 ml.

SMILES: CCOC(=O)c1ncn2c1CN(C)C(=O)c1c([123I])cccc1-2 [Aethyl-7-¹²³Jod-5,6-dihydro-5-methyl-6-oxo-4H-imidazo[1,5-a][1,4]benzodiazepin-3-carboxylat]
- Prozent der injizierten Aktivität in den entsprechend Organen (Blase, 2′): 0,03 Prozent der injizierten Aktivität
- Prozent der injizierten Aktivität in den entsprechend Organen (Blase, 10′): 0,06 Prozent der injizierten Aktivität
- Prozent der injizierten Aktivität in den entsprechend Organen (Blase, 20′): 0,03 Prozent der injizierten Aktivität
- Prozent der injizierten Aktivität in den entsprechend Organen (Blase, 40′): 0,01 Prozent der injizierten Aktivität
- Prozent der injizierten Aktivität in den entsprechend Organen (Blase, 60′): 0,03 Prozent der injizierten Aktivität
- Prozent der injizierten Aktivität in den entsprechend Organen (Blase, 6h): 0,09 Prozent der injizierten Aktivität
- Prozent der injizierten Aktivität in den entsprechend Organen (Blase, 15h): 0,0022 Prozent der injizierten Aktivität
- Prozent der injizierten Aktivität in den entsprechend Organen (Darm, 2′): 9,28 Prozent der injizierten Aktivität
- Prozent der injizierten Aktivität in den entsprechend Organen (Darm, 10′): 12,70 Prozent der injizierten Aktivität
- Prozent der injizierten Aktivität in den entsprechend Organen (Darm, 20′): 22,53 Prozent der injizierten Aktivität
- Prozent der injizierten Aktivität in den entsprechend Organen (Darm, 40′): 25,54 Prozent der injizierten Aktivität
- Prozent der injizierten Aktivität in den entsprechend Organen (Darm, 60′): 28,48 Prozent der injizierten Aktivität
- Prozent der injizierten Aktivität in den entsprechend Organen (Darm, 6h): 19,50 Prozent der injizierten Aktivität
- Prozent der injizierten Aktivität in den entsprechend Organen (Darm, 15h): 1,012 Prozent der injizierten Aktivität
- Prozent der injizierten Aktivität in den entsprechend Organen (Femur, 2′): 0,39 Prozent der injizierten Aktivität
- Prozent der injizierten Aktivität in den entsprechend Organen (Femur, 10′): 0,25 Prozent der injizierten Aktivität
- Prozent der injizierten Aktivität in den entsprechend Organen (Femur, 20′): 0,14 Prozent der injizierten Aktivität
- Prozent der injizierten Aktivität in den entsprechend Organen (Femur, 40′): 0,06 Prozent der injizierten Aktivität
- Prozent der injizierten Aktivität in den entsprechend Organen (Femur, 60′): 0,04 Prozent der injizierten Aktivität
- Prozent der injizierten Aktivität in den entsprechend Organen (Femur, 6h): 0,01 Prozent der injizierten Aktivität
- Prozent der injizierten Aktivität in den entsprechend Organen (Femur, 15h): 0,004 Prozent der injizierten Aktivität
- Prozent der injizierten Aktivität in den entsprechend Organen (Herz, 2′): 0,58 Prozent der injizierten Aktivität
- Prozent der injizierten Aktivität in den entsprechend Organen (Herz, 10′): 0,37 Prozent der injizierten Aktivität
- Prozent der injizierten Aktivität in den entsprechend Organen (Herz, 20′): 0,17 Prozent der injizierten Aktivität
- Prozent der injizierten Aktivität in den entsprechend Organen (Herz, 40′): 0,06 Prozent der injizierten Aktivität
- Prozent der injizierten Aktivität in den entsprechend Organen (Herz, 60′): 0,03 Prozent der injizierten Aktivität
- Prozent der injizierten Aktivität in den entsprechend Organen (Herz, 6h): 0,009 Prozent der injizierten Aktivität
- Prozent der injizierten Aktivität in den entsprechend Organen (Herz, 15h): 0,0035 Prozent der injizierten Aktivität
- Prozent der injizierten Aktivität in den entsprechend Organen (Hirn, 2′): 3,11 Prozent der injizierten Aktivität
- Prozent der injizierten Aktivität in den entsprechend Organen (Hirn, 10′): 5,38 Prozent der injizierten Aktivität
- Prozent der injizierten Aktivität in den entsprechend Organen (Hirn, 20′): 4,20 Prozent der injizierten Aktivität
- Prozent der injizierten Aktivität in den entsprechend Organen (Hirn, 40′): 4,02 Prozent der injizierten Aktivität
- Prozent der injizierten Aktivität in den entsprechend Organen (Hirn, 60′): 2,42 Prozent der injizierten Aktivität
- Prozent der injizierten Aktivität in den entsprechend Organen (Hirn, 6h): 0,08 Prozent der injizierten Aktivität
- Prozent der injizierten Aktivität in den entsprechend Organen (Hirn, 15h): 0,0015 Prozent der injizierten Aktivität
- Prozent der injizierten Aktivität in den entsprechend Organen (Kot + Urin, 2′): 0,05 Prozent der injizierten Aktivität
- Prozent der injizierten Aktivität in den entsprechend Organen (Kot + Urin, 10′): 6,17 Prozent der injizierten Aktivität
- Prozent der injizierten Aktivität in den entsprechend Organen (Kot + Urin, 20′): 19,39 Prozent der injizierten Aktivität
- Prozent der injizierten Aktivität in den entsprechend Organen (Kot + Urin, 40′): 48,72 Prozent der injizierten Aktivität
- Prozent der injizierten Aktivität in den entsprechend Organen (Kot + Urin, 60′): 51,71 Prozent der injizierten Aktivität
- Prozent der injizierten Aktivität in den entsprechend Organen (Kot + Urin, 6h): 48,81 Prozent der injizierten Aktivität
- Prozent der injizierten Aktivität in den entsprechend Organen (Kot + Urin, 15h): 42,69 Prozent der injizierten Aktivität
- Prozent der injizierten Aktivität in den entsprechend Organen (Leber, 2′): 16,90 Prozent der injizierten Aktivität
- Prozent der injizierten Aktivität in den entsprechend Organen (Leber, 10′): 34,37 Prozent der injizierten Aktivität
- Prozent der injizierten Aktivität in den entsprechend Organen (Leber, 20′): 17,61 Prozent der injizierten Aktivität
- Prozent der injizierten Aktivität in den entsprechend Organen (Leber, 40′): 3,90 Prozent der injizierten Aktivität
- Prozent der injizierten Aktivität in den entsprechend Organen (Leber, 60′): 1,29 Prozent der injizierten Aktivität
- Prozent der injizierten Aktivität in den entsprechend Organen (Leber, 6h): 0,15 Prozent der injizierten Aktivität
- Prozent der injizierten Aktivität in den entsprechend Organen (Leber, 15h): 0,107 Prozent der injizierten Aktivität
- Prozent der injizierten Aktivität in den entsprechend Organen (Lunge, 2′): 1,04 Prozent der injizierten Aktivität
- Prozent der injizierten Aktivität in den entsprechend Organen (Lunge, 10′): 0,81 Prozent der injizierten Aktivität
- Prozent der injizierten Aktivität in den entsprechend Organen (Magen, 2′): 0,81 Prozent der injizierten Aktivität
- Prozent der injizierten Aktivität in den entsprechend Organen (Magen, 10′): 1,20 Prozent der injizierten Aktivität
- Prozent der injizierten Aktivität in den entsprechend Organen (Magen, 20′): 1,28 Prozent der injizierten Aktivität
- Prozent der injizierten Aktivität in den entsprechend Organen (Magen, 40′): 1,37 Prozent der injizierten Aktivität
- Prozent der injizierten Aktivität in den entsprechend Organen (Magen, 60′): 1,96 Prozent der injizierten Aktivität
- Prozent der injizierten Aktivität in den entsprechend Organen (Magen, 6h): 1,35 Prozent der injizierten Aktivität
- Prozent der injizierten Aktivität in den entsprechend Organen (Magen, 15h): 0,346 Prozent der injizierten Aktivität
- Prozent der injizierten Aktivität in den entsprechend Organen (Milz, 2′): 0,26 Prozent der injizierten Aktivität
- Prozent der injizierten Aktivität in den entsprechend Organen (Milz, 10′): 0,21 Prozent der injizierten Aktivität
- Prozent der injizierten Aktivität in den entsprechend Organen (Milz, 20′): 0,11 Prozent der injizierten Aktivität
- Prozent der injizierten Aktivität in den entsprechend Organen (Milz, 40′): 0,06 Prozent der injizierten Aktivität
- Prozent der injizierten Aktivität in den entsprechend Organen (Milz, 60′): 0,03 Prozent der injizierten Aktivität
- Prozent der injizierten Aktivität in den entsprechend Organen (Milz, 6h): 0,008 Prozent der injizierten Aktivität
- Prozent der injizierten Aktivität in den entsprechend Organen (Milz, 15h): 0,0035 Prozent der injizierten Aktivität
- Prozent der injizierten Aktivität in den entsprechend Organen (Nieren, 2′): 3,15 Prozent der injizierten Aktivität
- Prozent der injizierten Aktivität in den entsprechend Organen (Nieren, 10′): 7,48 Prozent der injizierten Aktivität
- Prozent der injizierten Aktivität in den entsprechend Organen (Nieren, 20′): 6,25 Prozent der injizierten Aktivität
- Prozent der injizierten Aktivität in den entsprechend Organen (Nieren, 40′): 1,53 Prozent der injizierten Aktivität
- Prozent der injizierten Aktivität in den entsprechend Organen (Nieren, 60′): 0,79 Prozent der injizierten Aktivität
- Prozent der injizierten Aktivität in den entsprechend Organen (Nieren, 6h): 0,04 Prozent der injizierten Aktivität
- Prozent der injizierten Aktivität in den entsprechend Organen (Nieren, 15h): 0,009 Prozent der injizierten Aktivität
- Prozent der injizierten Aktivität in den entsprechend Organen (Ovar, 2′): 0,09 Prozent der injizierten Aktivität
- Prozent der injizierten Aktivität in den entsprechend Organen (Ovar, 10′): 0,06 Prozent der injizierten Aktivität
- Prozent der injizierten Aktivität in den entsprechend Organen (Ovar, 20′): 0,05 Prozent der injizierten Aktivität
- Prozent der injizierten Aktivität in den entsprechend Organen (Ovar, 40′): 0,02 Prozent der injizierten Aktivität
- Prozent der injizierten Aktivität in den entsprechend Organen (Ovar, 60′): 0,02 Prozent der injizierten Aktivität
- Prozent der injizierten Aktivität in den entsprechend Organen (Ovar, 6h): 0,003 Prozent der injizierten Aktivität
- Prozent der injizierten Aktivität in den entsprechend Organen (Ovar, 15h): 0,0008 Prozent der injizierten Aktivität
- Prozent der injizierten Aktivität in den entsprechend Organen (Restkörper, 2′): 63,94 Prozent der injizierten Aktivität
- Prozent der injizierten Aktivität in den entsprechend Organen (Restkörper, 10′): 29,92 Prozent der injizierten Aktivität
- Prozent der injizierten Aktivität in den entsprechend Organen (Restkörper, 20′): 25,92 Prozent der injizierten Aktivität
- Prozent der injizierten Aktivität in den entsprechend Organen (Restkörper, 40′): 11,04 Prozent der injizierten Aktivität
- Prozent der injizierten Aktivität in den entsprechend Organen (Restkörper, 60′): 7,09 Prozent der injizierten Aktivität
- Prozent der injizierten Aktivität in den entsprechend Organen (Restkörper, 6h): 2,88 Prozent der injizierten Aktivität
- Prozent der injizierten Aktivität in den entsprechend Organen (Restkörper, 15h): 1,30 Prozent der injizierten Aktivität
- Prozent der injizierten Aktivität in den entsprechend Organen (Schilddrüse, 2′): 0,18 Prozent der injizierten Aktivität
- Prozent der injizierten Aktivität in den entsprechend Organen (Schilddrüse, 10′): 0,15 Prozent der injizierten Aktivität
- Prozent der injizierten Aktivität in den entsprechend Organen (Schilddrüse, 20′): 0,18 Prozent der injizierten Aktivität
- Prozent der injizierten Aktivität in den entsprechend Organen (Schilddrüse, 40′): 0,03 Prozent der injizierten Aktivität
- Prozent der injizierten Aktivität in den entsprechend Organen (Schilddrüse, 60′): 0,02 Prozent der injizierten Aktivität
- Prozent der injizierten Aktivität in den entsprechend Organen (Schilddrüse, 6h): 0,008 Prozent der injizierten Aktivität
- Prozent der injizierten Aktivität in den entsprechend Organen (Schilddrüse, 15h): 0,0015 Prozent der injizierten Aktivität
- Prozent der injizierten Aktivität in den entsprechend Organen (Totalkörper, 2′): 99,75 Prozent der injizierten Aktivität
- Prozent der injizierten Aktivität in den entsprechend Organen (Totalkörper, 10′): 92,96 Prozent der injizierten Aktivität
- Prozent der injizierten Aktivität in den entsprechend Organen (Totalkörper, 20′): 78,87 Prozent der injizierten Aktivität
- Prozent der injizierten Aktivität in den entsprechend Organen (Totalkörper, 40′): 47,80 Prozent der injizierten Aktivität
- Prozent der injizierten Aktivität in den entsprechend Organen (Totalkörper, 60′): 43,17 Prozent der injizierten Aktivität
- Prozent der injizierten Aktivität in den entsprechend Organen (Totalkörper, 6h): 24,16 Prozent der injizierten Aktivität
